Where only a bound is given, the exact number is not on record here.

Sequence of 72 kDa type IV collagenase (P33436 whole entry): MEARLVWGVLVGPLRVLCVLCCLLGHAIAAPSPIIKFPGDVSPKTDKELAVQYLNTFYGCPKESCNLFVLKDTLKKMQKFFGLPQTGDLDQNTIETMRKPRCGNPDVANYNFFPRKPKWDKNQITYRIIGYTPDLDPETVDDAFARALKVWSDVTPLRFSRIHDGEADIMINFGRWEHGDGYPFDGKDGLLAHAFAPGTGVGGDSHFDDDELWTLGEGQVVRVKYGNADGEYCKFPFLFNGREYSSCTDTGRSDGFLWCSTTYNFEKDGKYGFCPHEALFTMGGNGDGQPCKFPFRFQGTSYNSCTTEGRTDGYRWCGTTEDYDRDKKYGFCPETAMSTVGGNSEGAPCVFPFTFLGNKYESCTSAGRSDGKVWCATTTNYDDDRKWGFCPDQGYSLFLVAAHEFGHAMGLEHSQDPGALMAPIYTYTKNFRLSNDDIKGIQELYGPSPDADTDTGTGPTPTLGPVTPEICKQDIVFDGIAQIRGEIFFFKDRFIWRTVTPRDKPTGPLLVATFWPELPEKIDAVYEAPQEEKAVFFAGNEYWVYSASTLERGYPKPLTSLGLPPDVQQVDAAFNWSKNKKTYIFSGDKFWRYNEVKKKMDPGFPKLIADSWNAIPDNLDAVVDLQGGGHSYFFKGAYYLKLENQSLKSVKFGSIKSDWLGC

The assay concerns the target 72 kDa type IV collagenase (Rattus norvegicus, UniProt P33436). Put plainly: Inhibition of gelatinolytic activity of MMP2 in rat lung homogenate after 40 mins by SDS-PAGE preincubated for 30 mins.
In general, IC50 refers to the concentration that gives 50% inhibition. `COC(=O)[C@@H](Cc1ccc(O)c(O)c1)OC(=O)/C=C/c1ccc(O)c(O)c1` [METHYL ROSMARINATE] registered an IC50 above 100 µM.

In the case of `O=C(/C=C/c1ccc(O)c2c1[C@H](C(=O)O)[C@@H](c1ccc(O)c(O)c1)O2)O[C@H](Cc1ccc(O)c(O)c1)C(=O)O` [LITHOSPERMIC ACID], the IC50 stood at 10.2 µM. For `O=C(/C=C/c1ccc(O)c(O)c1)O[C@H](Cc1ccc(O)c(O)c1)C(=O)O` [ROSMARINIC ACID] the value was 27.2 µM; for `O=C(/C=C/c1ccc(O)cc1)O[C@H](Cc1ccc(O)c(O)c1)C(=O)O` [CLINOPODIC ACID A], above 100 µM; for `O=C(/C=C/c1ccc2c(c1)O[C@@H](C(=O)O)[C@@H](c1ccc(O)c(O)c1)O2)O[C@H](Cc1ccc(O)c(O)c1)C(=O)O` [CLINOPODIC ACID E], above 100 µM. For `COc1cc(C[C@@H](OC(=O)/C=C/c2ccc(O)c3c2[C@H](C(=O)O)[C@@H](c2ccc(O)c(OC)c2)O3)C(=O)O)ccc1O` [CLINOPODIC ACID H] the value was above 100 µM; for `COc1cc(C[C@@H](OC(=O)/C=C/c2ccc(O)c(O)c2)C(=O)O)ccc1O` [CLINOPODIC ACID B], above 100 µM; for `COc1cc(C[C@@H](OC(=O)/C=C/c2ccc3c(c2)O[C@@H](C(=O)O)[C@@H](c2ccc(O)c(O)c2)O3)C(=O)O)ccc1O` [CLINOPODIC ACID F], above 100 µM. For `O=C(/C=C/c1ccc2c(c1)O[C@H](C(=O)O)[C@H](c1ccc(O)c(O)c1)O2)O[C@H](Cc1ccc(O)c(O)c1)C(=O)O` [CLINOPODIC ACID C] the value was 3.26 µM.

These data come from ChEMBL document CHEMBL1154248, “Matrix metalloproteinase-2 inhibitors from Clinopodium chinense var. parviflorum” (J Nat Prod, 2009).
